How the values were obtained:
SKH-1 hairless mice [1] = assay: Hairless mouse assay: epidermal bromodeoxyuridine (BrdU) staining; assay type: in vivo; settings: epidermal BrdU staining after 3 weeks of topical treatment, 0.1% (tretinoin 0.05%)
Excerpt: This study determined the effect of topical compound formulations on epidermal cell proliferation using bromodeoxyuridine as an immunohistochemical marker of cell proliferation. Histological examination of the treated and control skin were used to determine cutaneous effects of the topical compounds. Topical tretinoin 0.05% (Renova™) was used as a therapeutic control.
(§1) Experimental Design. 48 female SKH-1 hairless mice (5 weeks old, 20-25 grams, Charles River Laboratories, Wilmington, Mass.) are individually housed in filter-top cages, and acclimated for 5-7 days after delivery. The mice are divided into 8 treatment groups (n=6), including two different control groups (untreated control, vehicle control) and a therapeutic control (tretinoin 0.05% Renova™ cream). Cage cards are marked to indicate treatment groups 1-8. Water and mouse chow are provided ad libitum.
(§2) Topical Treatments. Beginning on Treatment Day 1, test products are applied topically each morning (Monday through Friday) after erythema evaluations for 3 weeks. Using a positive displacement pipette, 20 mg of each agent is applied to a 2 cm×2 cm area of the center midline of the back. The material was spread across the treatment area with the pipette tip.
Bromodeoxyuridine Injection. All animal groups are injected with bromodeoxyuridine (100 mg/kg) I.P. 4 hours after the final application. Animals are sacrificed by CO2 inhalation 3 hours later followed by cervical dislocation. The test sites are excised, and 6 mm punch biopsies are obtained from each treatment site, and from untreated controls. Biopsies are placed into labeled vials containing 4% neutral buffered formalin for paraffin embedding and anti-BrdU staining.
Bromodeoxyuridine Immunohistochemical Staining. Paraffin sections are cut to a […] thickness and stained using the BrdU Immuno-histochemistry kit (X1545K from Exalpha Biologicals, Inc.) and a standard staining protocol. The slides are weakly counterstained in Mayer's hematoxylin and scored under a light microscope for the number of BrdU-positive cells per mm of epidermis for each section. The data are expressed as mean BrdU-positive cells/mm for each treatment group. Differences in BrdU labeling in the treatment groups are statistically analyzed using the Students t-test. Representative photographs are taken of the histological sections of the BrdU-positive staining cells.

SKH-1 hairless mice [2] = assay: Hairless mouse assay: skin moisture content; assay type: in vivo; settings: compared with the vehicle
Excerpt: Evaluation of cutaneous effects of new topical compounds in the hirless mouse assay. The purpose of this study was to evaluate new topical compounds for their safety and efficacy as topical skin anti-aging treatments. The hairless mouse model is a well established model for studying the treatments of photoaging. […] The present study was used to investigate a new class of anti-aging compounds in comparison to classical ones. […] Topical compounds and vehicle controls were be applied daily (Monday-Friday) for 3 weeks to the dorsal skin of hairless mice. At baseline (prior to the 1st treatment), and weekly, the dorsal skin was measured for: transepidermal water loss (TEWL); skin moisture content; and skin elasticity.
as §1
Skin Moisture Content & Elasticity. The measurements of skin moisture content and skin elasticity are important noninvasive methods used to characterize the effects of moisturizers and anti-wrinkle effects on skin. A DermaLab™ combination instrument were used to measure the skin moisture content and elasticity of the target skin sites at baseline and at weekly intervals. This instrument is equipped with dual probes which are placed on the skin surface and a quantitative measurement taken of the respective parameters and the measurements recorded on an integrated computer. Mean measurements was determined for each treatment group over time, and comparative statistics used to evaluate product effectiveness.
as §2

melanoma cell line G-361 = assay: In vitro cytotoxic activity (metabolisation of Calcein AM); assay type: cell-based, human; settings: Homo sapiens, G-361 cells, 72 hours incubation, called GI50, read-out: Cell line tested/IC50 (μmol/L) G-361
Summary of the method: (§3)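 Cells were pre-incubated 24 hours at 2.500-30.000 cells per well, then exposed to six 3-fold dilutions, usually from 100 μM top, for 72 hours at 37° C, 5% CO2, in triplicate. Calcein AM was added at 1 μg/ml final and fluorescence read after 1 hour; GI50 is the concentration halving Calcein AM conversion.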

[3] = test system: breast carcinoma cell line MCF-7; assay: as above; assay type: cell-based, human; settings: Homo sapiens, MCF7 cells, 72 hours incubation, called GI50, read-out: Cell line tested/IC50 (μmol/L) MCF7
Summary of the method: as §3

[4] = test system: normal diploid fibroblasts BJ; assay: as above; assay type: cell-based, human; settings: Homo sapiens, BJ cells, 72 hours incubation, called GI50, read-out: Cell line tested/IC50 (μmol/L) BJ
Summary of the method: as §3

[5] = test system: erytroid leukemia cell line K-562; assay: as above; assay type: cell-based, human; settings: Homo sapiens, K562, K-562 cells, 72 hours incubation, called GI50, read-out: Cell line tested/IC50 (μmol/L) K-562
Summary of the method: as §3

[6] = test system: T-lymphoblastic leukemia cell line CEM; assay: as above; assay type: cell-based, human; settings: Homo sapiens, CCRF-CEM, CEM cells, 72 hours incubation, called GI50, read-out: Cell line tested/IC50 (μmol/L) CEM
Summary of the method: as §3

[7] = test system: osteosarcoma cell line HOS; assay: as above; assay type: cell-based, human; settings: Homo sapiens, HOS cells, 72 hours incubation, called GI50, read-out: Cell line tested/IC50 (μmol/L) HOS
Summary of the method: as §3

[8] = test system: Human diploid fibroblast BJ; assay: In vitro cytotoxic activity (metabolisation of MTT); assay type: cell-based; settings: 72 hours, BJ passage 18-22
Summary of the method: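 BJ human diploid fibroblasts (passage 18-22) exposed 72 h to compounds at 0-200 μM (top dose lowered if solubility-limited), pentaplicate. MTT 0.5 mg/ml final added for 3 h, formazan dissolved in DMSO, absorbance at 570 nm. GI20 (20% drop in mitochondrial dehydrogenase activity) taken from dose-response curves.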

excised wheat leaf tips = assay: Senescence inhibition on winter wheat leaf segments (chlorophyll retention); assay type: in vivo, Triticum aestivum cv. Hereward; settings: for Activity (%): at concentration with highest activity, activity of 10^−4 M kinetin set at 100%; for Concentration with highest activity: retention of chlorophyll in excised wheat leaf tips, 96 hours in the dark
Experimental: Senescence Inhibition by Novel Compounds Tested on Winter Wheat Leaf Segments. Seeds of winter wheat, Triticum aestivum cv. Hereward, were washed under running water for 24 hours and then sown on vermiculite soaked with Knop's solution. They were placed in the grown chamber at 25° C. with a 16/8 hours light period at […]·m^−2·s^−1. After 7 days, the first leaf was fully developed and the second leaf had started to grow. A tip section of the first leaf, approximately 35 mm long, was removed from 5 seedlings and trimmed slightly to a combined weight of 100 mg. The basal ends of the five leaf tips were placed in the wells of a microtiter polystyrene plate containing […] of a cytokinin solution each. The entire plate was inserted into a plastic box lined with paper tissues soaked in distilled water to prevent leaf sections from drying out. After 96 hours incubation in the dark at 25° C., the leaves were removed and chlorophyll extracted by heating at 80° C. for 10 min in 5 ml of 80% ethanol (v/v). The sample volume was then restored to 5 ml by the addition of 80% ethanol (v/v). The absorbance of the extract was recorded at 665 nm. In addition, chlorophyll extracts from fresh leaves and leaf tips incubated in deionized water were measured. The set up of the assay is shown on FIG. 1. From the obtained data, the concentration with highest activity was selected for each compound tested. Relative activity of the compound at this concentration was calculated (see Table 2 below). […] The values shown are means of five replicates and the whole experiment was repeated twice.
The compounds to be tested were dissolved in dimethylsulfoxide (DMSO) and the solution brought up to 10^−3 M with distilled water.

[9] = test system: cytokinin-dependent tobacco callus; assay: Growth of cytokinin-dependent tobacco callus (plant cell division); assay type: cell-based, Nicotiana tabacum L. cv. Wisconsin 38; settings: for Activity (%): at concentration with highest activity, activity of kinetin set at 100%
Experimental: The effect on plant cell division. Cytokinin-dependent tobacco callus Nicotiana tabacum L. cv. Wisconsin 38 was maintained at 25° C. in darkness on modified MS medium, containing 4 μmol/l nicotinic acid, 2.4 μmol/l pyridoxine hydrochloride, 1.2 μmol/l thiamine, 26.6 μmol/l glycine, 1.37 μmol/l glutamine, 1.8 μmol/1 myo-inositol, 30 g/l of sucrose, 8 g/l of agar, 5.37 μmol/l NAA and 0.5 μmol/l BAP. Subcultivation was carried out every three weeks. Fourteen days before the bioassay, the callus tissue was transferred to the media without BAP. Biological activity was determined from the increase in fresh callus weight after four weeks of cultivation. Five replicates were prepared for each cytokinin concentration and the entire test was repeated twice. From the obtained data, the concentration with highest activity was selected for each compound tested. Relative activity at this concentration was calculated (see Table 4 below).
The cytokinins to be tested were dissolved in dimethylsulfoxide (DMSO) and the solution brought up to 10^−3M with distilled water.

[10] = test system: Amaranthus caudatus cotyledon/hypocotyl explants; assay: Amaranthus bioassay (betacyanin content); assay type: in vivo, Amaranthus caudatus var. atropurpurea; settings: for Activity (%): at concentration with highest activity, activity of kinetin set at 100%; for Concentration with highest activity: betacyanin content, 48 hours in darkness
Experimental: Testing of Novel Compounds in Amaranthus bioassay. Standard Amaranthus bioassay was performed with several modifications. The seeds of Amaranthus caudatus var. atropurpurea were surface-sterilized in 10% N-chlorobenzene sulfonamide (w/v) for 10 min and washed 5 times in deionized water. They were placed in 14 cm Petri dishes containing paper tissues saturated with deionized water. After 72 hours of cultivation at 25° C. in darkness, the roots of the seedlings were cut off. The explants, consisting of two cotyledons and hypocotyls, were placed in 5 cm Petri dishes on two layers of filter paper soaked in 1 ml of incubation medium containing 10 μmol Na2HPO4—KH2PO4, pH 6.8, 5 μmol tyrosine and the cytokinin to be tested. There were 20 explants per dish. The procedure was carried out under a green safe light in a darkroom. After a 48 hours of incubation at 25° C. in darkness, betacyanin was extracted by freezing the explants in 4 ml 3.33 μM acetic acid. The concentration of betacyanin was determined by comparing the absorbance at 537 nm and 620 nm as follows: DA=A537nm−A620nm. From the obtained data, the concentration with highest activity was selected for each compound tested. Relative activity of the compound at this concentration was calculated (see Table 3 below). […] The values shown in Table 3 are means of five replicates and the entire test was repeated twice.
The cytokinins to be tested were dissolved in dimethylsulfoxide (DMSO) and the solution brought up to 10^−3 M with distilled water.

| Compound | Activity (%) (excised wheat leaf tips) | Concentration with highest activity (excised wheat leaf tips) | Activity (%) [9] [%] | Activity (%) [10] [%] | Concentration with highest activity [10] | other results |
| --- | --- | --- | --- | --- | --- | --- |
| c1coc(CNc2ncnc3c2ncn3C2CCCCO2)c1 (centres unmarked) [6-Furfurylamino-9-(2-tetrahydropyranyl)purine] |  |  |  |  |  | Mean Nuclei Stained (SKH-1 hairless mice [1]): 5.3 ± 4.2; average moisture content (SKH-1 hairless mice [2]): higher than that of the vehicle |
| Brc1nc2ncnc(NCc3ccccc3)c2[nH]1 [Compound 2, 6-Benzylamino-8-bromopurine] | 144.76 (±6) % | 10^−4 mol/l | 174.83 |  |  | IC50 (melanoma cell line G-361): > 50 µmol/L; IC50 [3]: > 50 µmol/L; IC50 [4]: > 50 µmol/L; IC50 [5]: > 50 µmol/L; IC50 [6]: > 50 µmol/L; IC50 [7]: > 50 µmol/L; GI20 [8]: >50 µM |
| Clc1nc2ncnc(NCc3ccccc3)c2[nH]1 [Compound 30, 6-Benzylamino-8-chloropurine] | 124.81 (±1) % | 10^−4 mol/l | 157.51 |  |  | GI20 [8]: >100 µM |
| CN(C)c1nc2ncnc(NCc3ccccc3)c2[nH]1 [Compound 62, 6-Benzylamino-8-dimethylaminopurine] | 106.13 (±1) % | 10^−4 mol/l | 165.64 |  |  | melting point: 217 to 219 °C |
| CC(C)=CCNc1ncnc2nc(N)[nH]c12 [Compound 87, 6-(3-methylbut-2-en-1-ylamino)-8-aminopurine] |  |  | 150.44 | 171.36 | 10^−4 mol/l | IC50 (melanoma cell line G-361): > 50 µmol/L; IC50 [3]: > 50 µmol/L; IC50 [4]: > 50 µmol/L; IC50 [5]: > 50 µmol/L; IC50 [6]: > 50 µmol/L; IC50 [7]: > 50 µmol/L; GI20 [8]: >100 µM |
| COc1nc2ncnc(NCc3ccccc3)c2[nH]1 [Compound 121, 6-Benzylamino-8-methoxypurine] |  |  | 129.11 | 121.15 | 10^−4 mol/l | IC50 (melanoma cell line G-361): > 50 µmol/L; IC50 [3]: > 50 µmol/L; IC50 [4]: > 50 µmol/L; IC50 [5]: > 50 µmol/L; IC50 [6]: > 50 µmol/L; IC50 [7]: > 50 µmol/L |
| Sc1nc2ncnc(NCc3ccccc3)c2[nH]1 [Compound 138, 6-Benzylamino-8-sulphanylpurine] | 140.45 (±3) % | 10^−4 mol/l | 156.66 | 111.25 | 10^−4 mol/l | melting point: 267 to 269 °C |
| COC(=O)c1nc2ncnc(NCc3ccccc3)c2[nH]1 [Compound 188] |  |  | 148.91 | 122.51 | 10^−4 mol/l | Concentration with highest activity ([9]; increase in fresh callus weight after four weeks): 10^−6 mol/l |
| CCOC(=O)c1nc2ncnc(NCc3ccccc3)c2[nH]1 [Compound 195, 6-Benzylamino-8-ethoxycarbonylpurine] | 122.06 (±2) % | 10^−4 mol/l |  | 122.55 | 10^−4 mol/l | melting point: 181 to 185 °C |
| C/C(=C\CNc1ncnc2[nH]cnc12)CO [Zeatin] |  |  |  |  |  | Mean Nuclei Stained (SKH-1 hairless mice [1]): 3.5 ± 3.4 mm; average moisture content (SKH-1 hairless mice [2]): higher than that of the vehicle |
| c1coc(CNc2ncnc3[nH]cnc23)c1 [kinetin, reference compound] | 100% | 10^−4 mol/l | 100 | 100 | 10^−5 mol/l | range of the optimal concentration ([9]; tobacco callus growth): sharp concentration optimum |

— patent US20130072506A1, “6,8-DISUBSTITUTED PURINE COMPOSITIONS” (priority 2011, published 2013)
